Source: EP0656422A1, “Cat assay” (priority 1993, dated 1995)

Molecular target: Chloramphenicol Acetyl Transferase (CAT) (Escherichia coli, UniProt P62577)
Assay: Acetylation by CAT with ¹⁴C acetyl coenzyme A, TLC and autoradiography
Type: biochemical
Details: analogue 2 mM stock 80 µl, CAT enzyme 3.75 units, ¹⁴C acetyl coenzyme A 0.1 µCi, 37°C for 90 minutes; no band in no enzyme control
Procedure: Biotinylated chloramphenicol analogue (compound 2) was dissolved to a concentration of 2 mmolar in 50% methanol. ¹⁴C acetyl coenzyme A (50 µCi/ml, […]) was obtained commercially.
In a microcentrifuge tube were mixed Tris/HCl (1M, pH 7.8) 7.5 µl, biotinylated chloramphenicol analogue (2 mM) 80 µl, CAT enzyme 3.75 units and ¹⁴C acetyl coenzyme A 2 µl (0.1 µCi). The mix was incubated at 37°C for 90 minutes. A control reaction which contained no enzyme was performed in parallel. 20 µl of each reaction was spotted on to a cellulose TLC plate which was developed in 95/5 chloroform methanol. The TLC plate was exposed to autoradiographic film.
The lane corresponding to the reaction to which enzyme was added contains a spot which migrated under the influence of the solvent. This band is acetylated, biotinylated chloramphenicol analogue. No corresponding band is visible in the no enzyme control.

Chloramphenicol Acetyl Transferase (CAT), sequence (P62577 whole entry, looked up): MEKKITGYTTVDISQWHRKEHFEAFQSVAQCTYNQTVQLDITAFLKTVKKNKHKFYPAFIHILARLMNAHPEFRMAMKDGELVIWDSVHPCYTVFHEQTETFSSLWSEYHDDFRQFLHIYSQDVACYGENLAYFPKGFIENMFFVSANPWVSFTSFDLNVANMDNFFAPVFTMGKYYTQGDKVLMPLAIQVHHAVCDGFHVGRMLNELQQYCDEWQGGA

CC(=O)N[C@H](CO)[C@H](O)c1ccc(NC(=O)CCCCCNC(=O)CCCC[C@@H]2SC[C@@H]3NC(=O)N[C@@H]32)cc1 [Compound 2, 6-biotinylamino-N[4-(N-acetyl-1-(2-amino-1,3-propandiol))phenyl]hexamide]
substrate of CAT (acetylated product band on TLC): is a substrate of CAT
